Test [1] concerns the target RXFP1 stably expressed in HEK293 cells (HEK-RXFP1) (human) (UniProt Q9HBX9). Briefly: radioligand binding; kinetics on HEK-RXFP1 cells in 96-well plates, without ML290: association with 100 pM 125I-H2 relaxin over time; dissociation after 90 min equilibration, started with 200 nM unlabelled H2 relaxin.
The target is the same in test [2]. The experiment in a line: radioligand binding; kinetics on HEK-RXFP1 cells in 96-well plates, with ML290 (1 μM): association with 100 pM 125I-H2 relaxin over time; dissociation after 90 min equilibration, started with 200 nM unlabelled H2 relaxin.
Test [3] deals with ML290-mediated cAMP accumulation. The experiment in a line: Effect of signalling pathway inhibitors on ML290-mediated cAMP accumulation in human primary vascular cells. Type of test: cell-based. The conditions noted are these: NF449 10 μM, NF023 10 μM, mSIRK 5 μM, gallein 50 μM, Wortmannin 100 nM, 30 min. On the procedure: (§1) cAMP and cGMP accumulation was determined as previously described, [16]. Briefly, HEK293 cells were plated in 96-well plates (5 × 10^4 cells/well) and human primary cells were plated into 24-well plates (1 × 10^5 cells/well) and grown overnight to achieve a confluent monolayer. Prior to stimulation, HEK cells were serum-starved in DMEM containing 0.5% FBS v/v and primary cells were serum-starved in M199 medium for 4–6 hours. […] Levels of cAMP and cGMP were detected according to the manufacturer’s instructions (Perkin-Elmer, Australia).
(cAMP levels reflect the balance of adenylyl cyclase and phosphodiesterase activity.)

Test [4] relates to ML290-mediated cGMP accumulation. Briefly: Effect of signalling pathway inhibitors on ML290-mediated cGMP accumulation in human primary vascular cells. Type of test: cell-based. The conditions noted are these: NF449 10 μM, NF023 10 μM, mSIRK 5 μM, gallein 50 μM, Wortmannin 100 nM, 30 min. As to the method:
as §1

In the next test the test system is p-Smad2. Briefly: Smad2 phosphorylation assay in human cardiac fibroblasts. Type of test: cell-based. The conditions noted are these: HCFs; TGF-β1 2 ng/ml alone; 72 hours. On the procedure: (§2) Cells were serum-starved in M199 medium for 24 hours prior sample collection. Cells were used between passages 1–4, while all experiments were performed four separate times in duplicate. Levels of p-Smad2 and p-Smad3 were detected using Sure-fire kits according to the manufacturer’s instructions (Perkin-Elmer, Australia).

For the next test, the system named is p-Smad3. Briefly: Smad3 phosphorylation assay in human cardiac fibroblasts. Type of test: cell-based. The conditions noted are these: HCFs; TGF-β1 2 ng/ml alone; 72 hours. As to the method: as §2
The target in test [5] is T1, RXFP1 stably expressed in HEK293 cells (HEK-RXFP1) (human, UniProt Q9HBX9 1-757).
T1 sequence (looked up): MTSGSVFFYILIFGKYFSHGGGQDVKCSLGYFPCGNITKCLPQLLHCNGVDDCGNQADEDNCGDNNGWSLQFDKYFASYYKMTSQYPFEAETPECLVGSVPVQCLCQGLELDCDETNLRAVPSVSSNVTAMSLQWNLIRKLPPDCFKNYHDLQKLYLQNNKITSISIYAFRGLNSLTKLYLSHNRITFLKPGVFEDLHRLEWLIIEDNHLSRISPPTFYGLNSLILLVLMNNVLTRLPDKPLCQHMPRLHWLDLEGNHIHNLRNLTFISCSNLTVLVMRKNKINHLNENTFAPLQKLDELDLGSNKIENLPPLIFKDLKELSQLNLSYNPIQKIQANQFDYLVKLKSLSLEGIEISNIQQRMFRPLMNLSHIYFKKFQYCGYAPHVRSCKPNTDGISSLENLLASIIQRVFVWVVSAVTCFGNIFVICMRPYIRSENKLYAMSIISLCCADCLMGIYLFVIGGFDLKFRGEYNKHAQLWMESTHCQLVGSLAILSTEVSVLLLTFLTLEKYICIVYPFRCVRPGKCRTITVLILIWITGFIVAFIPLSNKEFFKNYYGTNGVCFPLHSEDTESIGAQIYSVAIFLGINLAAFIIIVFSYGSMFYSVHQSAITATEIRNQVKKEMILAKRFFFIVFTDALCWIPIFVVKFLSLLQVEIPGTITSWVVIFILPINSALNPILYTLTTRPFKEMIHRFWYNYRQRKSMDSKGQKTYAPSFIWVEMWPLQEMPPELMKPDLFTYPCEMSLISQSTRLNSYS
The experiment in a line: cell-based or functional assay.

The target in test [6] is T1, RXFP1 stably expressed in HEK293 cells …. The experiment in a line: radioligand binding; competition on HEK-RXFP1 cells: 100 pM 125I-H2 relaxin against increasing unlabelled H2 relaxin, vehicle (0.1% DMSO), 90 min, room temperature. The conditions noted are these: one partner purified.
The target is the same in test [7]. The experiment in a line: radioligand binding; competition on HEK-RXFP1 cells: 100 pM 125I-H2 relaxin against increasing unlabelled H2 relaxin, in the presence of ML290 (1 μM), 90 min, room temperature. The conditions noted are these: one partner purified.

In general, koff refers to the rate constant with which the complex falls apart. A higher koff goes with a short-lived complex. Usually kon stands for the rate constant with which the complex forms. Read a low kon as slower complex formation. For 125I-H2 relaxin (ligand), in [1], the koff was 0.000833 s⁻¹ and the on-rate (kon) was 3.5e+06 M⁻¹ s⁻¹. Further, in test [2], the koff was 0.000667 s⁻¹ and the kon came to 4.67e+06 M⁻¹ s⁻¹.
In the case of `O=C(Nc1cccc(C(=O)Nc2ccc(S(=O)(=O)O)c3cc(S(=O)(=O)O)cc(S(=O)(=O)O)c23)c1)Nc1cccc(C(=O)Nc2ccc(S(=O)(=O)O)c3cc(S(=O)(=O)O)cc(S(=O)(=O)O)c23)c1` [NF023], the “ML290-mediated cAMP accumulation after inhibitor” value in test [3] (HCAECs) is listed as “unaffected”; in test [3] (HUASMCs, L9A 5 μM), “no effect”; in test [3] (HUVECs) it was “unaffected”; in test [3] (HUVSMCs, L9A 5 μM), “no effect”. Besides, the “ML290-mediated cGMP accumulation after inhibitor” value in test [4] (HCAECs) was “not significantly affected”; in test [4] (HUASMCs, L9A 5 μM), “no effect”; in [4] (HUVECs), “not significantly affected”; in test [4] (HUVSMCs, L9A 5 μM) it was “no effect”.
Regarding `O=C(Nc1cc(C(=O)Nc2ccc(S(=O)(=O)O)cc2S(=O)(=O)O)cc(C(=O)Nc2ccc(S(=O)(=O)O)cc2S(=O)(=O)O)c1)Nc1cc(C(=O)Nc2ccc(S(=O)(=O)O)cc2S(=O)(=O)O)cc(C(=O)Nc2ccc(S(=O)(=O)O)cc2S(=O)(=O)O)c1` [NF449], the “ML290-mediated cAMP accumulation after inhibitor” value is reported as 0.8 ± 3.9 % response to 50 μM forskolin in test [3] (HCAECs); 6.0 ± 7.3 % response to 50 μM forskolin in [3] (HUASMCs, L9A 5 μM); 0.8 ± 5.7 % response to 50 μM forskolin in [3] (HUVECs); 4.7 ± 2.5 % response to 50 μM forskolin in test [3] (HUVSMCs, L9A 5 μM). Besides, the “ML290-mediated cGMP accumulation after inhibitor” value in [4] (HCAECs) is 11.9 ± 5.3 % of the response to DEA; in test [4] (HUASMCs, L9A 5 μM), 24.3 ± 5.7%; in [4] (HUVECs), 22.3 ± 3.0 % of the response to DEA; in test [4] (HUVSMCs, L9A 5 μM), 18.8 ± 3.7%.
For `COC[C@H]1OC(=O)c2coc3c2[C@@]1(C)C1=C(C3=O)[C@@H]2CCC(=O)[C@@]2(C)C[C@H]1OC(C)=O` [Wortmannin], the “ML290-mediated cAMP accumulation after inhibitor” value in test [3] (HCAECs) is “unaffected”; in test [3] (HUASMCs, L9A 5 μM) it was 7.2 ± 2.2 % response to 50 μM forskolin; in test [3] (HUVECs) it was “unaffected”; in test [3] (HUVSMCs, L9A 5 μM), 6.4 ± 2.2 % response to 50 μM forskolin. For the same molecule, the “ML290-mediated cGMP accumulation after inhibitor” value in test [4] (HCAECs) was “not significantly affected”; in test [4] (HUASMCs, L9A 5 μM) it was 21.8 ± 3.4%; in test [4] (HUVECs) it was “not significantly affected”; in test [4] (HUVSMCs, L9A 5 μM), 14.3 ± 3.3%.
As for `O=C1OC2(c3ccccc31)c1ccc(O)c(O)c1Oc1c2ccc(O)c1O` [gallein], the “ML290-mediated cAMP accumulation after inhibitor” value in [3] (HCAECs) is given as “unaffected”; in test [3] (HUASMCs, L9A 5 μM), 5.2 ± 1.4 % response to 50 μM forskolin; in test [3] (HUVECs), “unaffected”; in test [3] (HUVSMCs, L9A 5 μM), 3.2 ± 3.4 % response to 50 μM forskolin. The “ML290-mediated cGMP accumulation after inhibitor” value in test [4] (HCAECs) is on record as “not significantly affected”; in test [4] (HUASMCs, L9A 5 μM), 15.6 ± 2.6%; in [4] (HUVECs), “not significantly affected”; in [4] (HUVSMCs, L9A 5 μM), 14.3 ± 3.8%.
In the case of “TGF-β1: pro-fibrotic cytokine used to induce Smad2 and Smad3 phosphorylation”, the “increase in p-Smad2 compared to vehicle-treated samples” value with p-Smad2 came out at 2.21 ± 0.17 fold. For the same molecule, the “increase in p-Smad3 compared to vehicle-treated samples” value with p-Smad3 was 1.41 ± 0.07 fold.

B1: Human gene 2 relaxin (H2 relaxin) (ligand)
chain 1: QLYSALANKCCHVGCTKRSLARFC
chain 2: DSWMEEVIKLCGRELVRAQIAICGMSTWS
The term pKi denotes the negative decadic logarithm of the Ki, by convention in mol/L. Regarding B1, in test [5], the “cAMP accumulation in HCAEC (endogenous RXFP1), pEC50 (efficacy in brackets as % of forskolin 50 μM)” value is 8.9; the “cGMP accumulation in HCAEC (endogenous RXFP1), pEC50 (efficacy in brackets as % of DEA)” value was 9.2; the “cGMP accumulation in HCF (endogenous RXFP1), 40 min, pEC50 (efficacy in brackets as % of DEA)” value worked out at 9.6; the “p-ERK1/2 in HEK-RXFP1 cells, 5 min, pEC50 (efficacy in brackets as % of 10% FBS)” value worked out at 9.5. Moreover, the “p-p38MAPK in HEK-RXFP1 cells, 15 min, pEC50 (efficacy in brackets as % of sorbitol)” value in test [5] was 8.9. Besides, the pKi in test [6] is 9.5. Moreover, in test [7], the pKi is 9.7.

Source of the values: PMC5462828 (Scientific Reports, 2017).
